The values that follow are results of earlier work, collected in paper PMC3826081 (Journal of the American Chemical Society, 2013).

One may read the Kd as a measure of binding affinity in units of concentration.

In this data set the target is PG9. The settings on record: read-out: Kd for binding of PG9; NMR studies; glycan-Asn alone; cited from earlier work.

Structures are written as SMILES.

As to `CC(=O)N[C@@H]1[C@@H](O)[C@H](O[C@@H]2O[C@H](CO)[C@@H](O[C@@H]3O[C@H](CO[C@H]4O[C@H](CO[C@H]5O[C@H](CO)[C@@H](O)[C@H](O)[C@@H]5O)[C@@H](O)[C@H](O[C@H]5O[C@H](CO)[C@@H](O)[C@H](O)[C@@H]5O)[C@@H]4O)[C@@H](O)[C@H](O[C@H]4O[C@H](CO)[C@@H](O)[C@H](O)[C@@H]4O)[C@@H]3O)[C@H](O)[C@H]2NC(C)=O)[C@@H](CO)O[C@H]1NC(=O)C[C@H](N)C(=O)O` [Man5GlcNAc2–Asn], the Kd is 1 to 2 mM.
